In patent publication US9492470B2, “Use of HMGA-targeted phosphorothioate DNA aptamers to suppress carcinogenic activity and increase sensitivity to chemotherapy agents in human cancer cells” (MIAMI UNIVERSITY, priority 2012, dated 2016):
Read-outs that look alike come from different tables or passages of the source. Blank lines part the entries; values can stand above or below the molecule they belong to. In the oligonucleotide strings, read from the 5' end, every base follows the letter of its sugar. An asterisk marks phosphorothioate; unmarked linkages are phosphodiester. Other units and linkages are bracketed, terminal groups are in braces. A string of capitals states the bases alone. d = 2'-deoxy (DNA)

Columns and labels:
AsPC-1 cells [1] = conditions: for cells dead compared to UT: versus untransfected (UT) cells
Experimental: AsPC-1 cells were grown in Roswell Park Memorial Institute medium supplemented with 10% FBS, and 1% penicillin-streptomycin.
Transfections using sDNA at concentrations of 0.1 and 0.25 μg per well were conducted with 5×10^4 and 1×10^5 Miapaca-2 and AsPC-1 cells, respectively, in 24-well plates and all data were collected in quadruplicate. Miapaca-2 and AsPC-1 cells were transfected with sDNA using Lipofectamine 2000 (Invitrogen,™ Life Technologies Corporation, Carlsbad, Calif.) according to the manufacturer's protocol.
Briefly, AsPC-1 cells grown in 10% FBS containing RPIM medium were trypsinized using a trypsin-EDTA solution commercially available from the Sigma-Aldrich, and used to seed fresh media in a 24-well plate with 10^5 cells per well.
After 48 hours, the cells were transfected with the selected sDNA using Lipofectamine 2000 (Invitrogen,™ Life Technologies Corporation, Carlsbad, Calif.) according to the manufacturer's protocol. […] The cells were then fixed with 4% paraformaldehyde in PBS for 20 minutes and stained in 0.1% crystal violet stain (Sigma-Aldrich) for 30 minutes. The cells were washed under running tap water, air dried, and extracted with 0.2% Triton™ X-100 for 30 minutes. […] The absorbance of the Triton X-100 was measured at 570 nm using a HTS microplate reader. All results were analyzed for statistical significance using a student's unpaired t-test.

Miapaca-2 cells [2] = experiment: Cell growth with gemcitabine treatment after sDNA transfection, Miapaca-2; assay type: cell-based, Human; conditions: 96 hours; for Fold change in numbers of viable cells normalized relative to TC: Miapaca-2, 0.1 ug sDNA
Experimental: (§1) Cells were fixed after 96 hours and numbers of viable cells counted by measuring the absorbance at 570 nm.
(§2) Cells were transfected with 0.1 μg of TC-sDNA, Mix-sDNA, CG-sDNA, and AT-sDNA.

AsPC-1 cells [3] = experiment: Cell growth with gemcitabine treatment after sDNA transfection, AsPC-1; assay type: cell-based, Human; conditions: for Fold change in numbers of viable cells normalized relative to TC: AsPC-1, 0.1 ug sDNA
Experimental: as §1, §2

Miapaca-2 cells [4] = experiment: Cell growth with gemcitabine treatment after sDNA transfection, Miapaca-2; assay type: cell-based, Human; conditions: for IC50: Homo sapiens, MIA PaCa-2, 96 h
Miapaca-2 cells [5] = experiment: Cell viability (crystal violet) after sDNA transfection, Miapaca-2; assay type: cell-based, Human; conditions: for cells dead compared to UT: versus untransfected (UT) cells
Experimental: The absorbance was measured at 570 nm in quadruplicate. All data from control cells were combined and averaged.

[6] = system: HMGA1 expression levels in AsPC-1 cells; experiment: Western blot of HMGA1 expression levels in AsPC-1 nuclear extracts; assay type: cell-based, Human; conditions: AsPC-1, 100 nM gemcitabine, 48 hours
Experimental: Cytoplasmic and nuclear protein extracts were prepared from pancreatic cancer cells using NE-PER extraction kit (Thermo Scientific, Rockford, Ill.). Protein concentrations were determined using a bicinchoninic acid assay with bovine serum albumin as a standard. Nuclear proteins that contained 25 or 15 μg total protein were separated by SDS-PAGE with a 4%-20% Criterion gradient gel (Bio-Rad Laboratories, Inc., Hercules, Calif.). The proteins were transferred to immuno-blot PVDF membrane (0.2 μm) (Bio-Rad Laboratories, Inc., Hercules, Calif.) and blocked in 5% dry milk in PBS supplemented with 0.2% Tween 20 (PBST). The PVDF membranes were then probed with 1:1000 dilution of rabbit anti-HMGA1 antibody (Santa Cruz Biotechnology Inc, Santa Cruz, Calif.) and 1:100 dilution of rabbit anti-HMGA2 antibody (Abcam plc, Cambridge, Mass.), in 3% BSA in PBST at 4° C. overnight. After three washes with PBST, the membrane was blotted with secondary antibody, ant-rabbit IgG-HRP (cell signaling) 1:5000 dilution in 1% dry milk in PBST at room temperature for 1 hour. An enhanced chemiluminescence detection (ECL, GE Healthcare Life Sciences, Piscataway, N.J.) system was used to detect target proteins. To ensure equal loading of the proteins between groups, membranes were re-probed with anti-TATA binding protein antibody (Abcam plc, Cambridge, Mass.). […] The control was nuclear extract from untreated cells. Triplicates of each sample were run on the gel and analyzed with the Alpha Imager. The relative HMGA1 densities were obtained by dividing HMGA 1 density by TBP density. […] TATA binding protein (TBP) was used as a loading control. […] HMGA1 expression levels were examined after transfection with CG-sDNA or AT-sDNA to determine if the transfection procedure affected HMGA1 expression levels. The AT-sDNA used for transfection contained an 18 adenine/thymine stretch enabling HMGA1 to bind the DNA with all three AT-hooks. As a negative control, a non-HMGA1-targeted sDNA containing an equal length of DNA but with no AT-stretches, i.e. CG-sDNA, was used. […]

AsPC-1 cells [7] = experiment: Cell growth with gemcitabine treatment after sDNA transfection, AsPC-1; assay type: cell-based, Human; conditions: for Fold change in numbers of viable cells, TC cells with gemcitabine: AsPC-1, TC (no sDNA), 96 hours
[8] = AsPC-1, 0.1 μg sDNA, 96 h after transfection
[9] = Miapaca-2, 0.1 μg sDNA, 96 h after transfection

Molecule: Mix-sDNA: random phosphorothioate DNA (SEQ ID NO: 13), control lacking a HMGA-specific binding sequence (DNA dC*dC*dC*dA*dC*dT*dG*dC*dA*dG*dT*dC*dG*dG*dA*dC*dT*dC*dA*dC*dT*dC*dG*dC)
- cells dead compared to UT (AsPC-1 cells [1]; AsPC-1, 0.1 ug sDNA, 48 hrs): 28.0%
- Fold change in numbers of viable cells between TC and sDNA transfected cells (in parentheses) (AsPC-1 cells [1]; [8]): (−1.14) fold
- Fold change in numbers of viable cells between UT and transfected cells (AsPC-1 cells [1]; [8]): −1.24 fold
- cells dead compared to UT (AsPC-1 cells [1]; AsPC-1, 0.1 ug sDNA, 96 hrs): 19.4%
- difference in cell viability between TC cells and sDNA transfected cells (AsPC-1 cells [1]; AsPC-1, 0.1 ug sDNA, both 48 and 96 hours): no significant differences
- cells dead / change in cell viability (Miapaca-2 cells [2]; Miapaca-2, 0.1 μg sDNA, 1 nM gemcitabine): no significant change
- cells surviving (Miapaca-2 cells [2]; Miapaca-2, 0.1 μg sDNA, 10 nM gemcitabine, normalized to 0 nM gemcitabine): 94.5%
- Fold change in numbers of viable cells normalized relative to TC (Miapaca-2 cells [2]; Gemcitabine 0 nM): 1.07 fold
- Fold change in numbers of viable cells normalized relative to TC (Miapaca-2 cells [2]; Gemcitabine 10 nM): 1.01 fold
- Fold change in numbers of viable cells normalized relative to TC (Miapaca-2 cells [2]; Gemcitabine 30 nM): −2.65 fold
- Fold change in numbers of viable cells normalized relative to TC (Miapaca-2 cells [2]; Gemcitabine 100 nM): −4.41 fold
- Fold change in numbers of viable cells normalized relative to TC (Miapaca-2 cells [2]; Gemcitabine 1000 nM): −4.48 fold
- Fold change in numbers of viable cells normalized relative to TC (AsPC-1 cells [3]; Gemcitabine 0 nM, 96 hours): −1.14 fold
- Fold change in numbers of viable cells normalized relative to TC (AsPC-1 cells [3]; Gemcitabine 1 nM, 96 hours): −1.06 fold
- Fold change in numbers of viable cells normalized relative to TC (AsPC-1 cells [3]; Gemcitabine 10 nM, 96 hours): −1.16 fold
- Fold change in numbers of viable cells normalized relative to TC (AsPC-1 cells [3]; Gemcitabine 30 nM, 96 hours): −1.17 fold
- Fold change in numbers of viable cells normalized relative to TC (AsPC-1 cells [3]; Gemcitabine 100 nM, 96 hours): −1.36 fold
- Fold change in numbers of viable cells normalized relative to TC (AsPC-1 cells [3]; Gemcitabine 1000 nM, 96 hours): −1.59 fold
- Fold change in numbers of viable cells normalized relative to TC (Miapaca-2 cells [4]; Miapaca-2, 0.1 ug sDNA, Gemcitabine 1 nM, 96 hours): 1.12 fold
- cells dead compared to UT (Miapaca-2 cells [5]; Miapaca-2, 0.1 ug sDNA, 48 hrs): 30.4%
- Fold change in numbers of viable cells between TC and sDNA transfected cells (in parentheses) (Miapaca-2 cells [5]; [9]): (1.07) fold
- Fold change in numbers of viable cells between UT and transfected cells (Miapaca-2 cells [5]; [9]): −1.45 fold
- cells dead compared to UT (Miapaca-2 cells [5]; Miapaca-2, 0.1 ug sDNA, 96 hrs): 33.3%
- difference in cell viability between TC cells and sDNA transfected cells (Miapaca-2 cells [5]; Miapaca-2, 0.1 ug sDNA, both 48 and 96 hours): no significant differences

- IC50 (AsPC-1 cells [3]; Homo sapiens, ASPC1, 96 h, read-out: Gemcitabine IC50 in transfection control (TC) cells, AsPC-1, TC (no sDNA), 0.1 μg column, 96 hours): 28 nM
- IC50 (Miapaca-2 cells [4]; read-out: Gemcitabine IC50 in transfection control (TC) cells, Miapaca-2, TC (no sDNA), 0.1 μg column, 96 hours): 11.9 ± 1.2 nM
- IC50 (Miapaca-2 cells [4]; read-out: Gemcitabine IC50 in transfection control (TC) cells, Miapaca-2, TC (no sDNA), 0.25 μg column, 96 hours): 21.5 ± 0.6 nM
- IC50 (AsPC-1 cells [7]; Homo sapiens, ASPC1, 96 h, read-out: Gemcitabine IC50 in transfection control (TC) cells, AsPC-1, TC (no sDNA), 0.25 μg column, 96 hours): 24.8 nM
Molecule: Nc1ccn([C@@H]2O[C@H](CO)[C@@H](O)C2(F)F)c(=O)n1 [Gemcitabine, gemcitabine]
- change in HMGA1 expression levels after gemcitabine [6]: no change
- Fold change in numbers of viable cells, TC cells with gemcitabine (Miapaca-2 cells [2]; Miapaca-2, TC (no sDNA), Gemcitabine 30 nM): −3.21 fold
- Fold change in numbers of viable cells, TC cells with gemcitabine (AsPC-1 cells [3]; AsPC-1, TC (no sDNA), Gemcitabine 30 nM, 96 hours): −1.04 fold
- change in cell viability, TC cells (Miapaca-2 cells [4]; Miapaca-2, TC (no sDNA), 1 nM gemcitabine, 96 hours): no significant change
- cells surviving, TC cells (Miapaca-2 cells [4]; Miapaca-2, TC (no sDNA), 10 nM gemcitabine, 96 hours): 77.1%
- Fold change in numbers of viable cells, TC cells with gemcitabine (Miapaca-2 cells [4]; Miapaca-2, TC (no sDNA), Gemcitabine 1 nM, 96 hours): 1.00 fold
- Fold change in numbers of viable cells, TC cells with gemcitabine (Miapaca-2 cells [4]; Miapaca-2, TC (no sDNA), Gemcitabine 10 nM, 96 hours): −1.30 fold
- Fold change in numbers of viable cells, TC cells with gemcitabine (Miapaca-2 cells [4]; Miapaca-2, TC (no sDNA), Gemcitabine 100 nM, 96 hours): −3.59 fold
- Fold change in numbers of viable cells, TC cells with gemcitabine (Miapaca-2 cells [4]; Miapaca-2, TC (no sDNA), Gemcitabine 1000 nM, 96 hours): −3.47 fold
- Fold change in numbers of viable cells, TC cells with gemcitabine (AsPC-1 cells [7]; Gemcitabine 10 nM): −1.02 fold
- Fold change in numbers of viable cells, TC cells with gemcitabine (AsPC-1 cells [7]; Gemcitabine 100 nM): −1.36 fold
- Fold change in numbers of viable cells, TC cells with gemcitabine (AsPC-1 cells [7]; Gemcitabine 1000 nM): −1.52 fold
